Experimental data published in patent US5968933A, “DNA-targeted alkylating agents” (Auckland Division Cancer Society of New Zealand Inc., priority 1994, dated 1999).
pIC50: −log10 of the molar value. Where two headings read alike, the source gives them in different places.

Legend:
calf thymus DNA [1] = test: Rate of alkylation of calf thymus DNA by increase in DNA-bound fluorescence; format: biochemical; set-up: unit not given here
S. typhimurium TA102 = test: Bacterial mutagenicity, plate incorporation assay, TA102; settings: mean ± SD
calf thymus DNA [2] = test: Reversible DNA binding by spectrophotometric Scatchard analysis; settings: 20° C., 0.01M HEPES buffer, pH 7.00
P338 murine leukaemia = format: in vivo, mice
P388 cells = test: Growth inhibition in vitro, P388 leukaemia; format: cell-based, murine; settings: P388 cells, 72 h, MTT, read-out: IC50
Method: (§1) Representative examples of compounds of the invention were tested for biological activity against tumors. Compounds 1 to 6 and 14 to 21, prepared as described above, were tested for their ability to inhibit growth in vitro of cells of the wild-type murine leukaemia cell line P388, and the cell line AA8 which is derived from Chinese hamster ovary cells. For each compound, the IC50, ie. the concentration of compound which inhibited cell growth in treated cultures to 50% of that of controls, was determined, using means of three determinations. In addition, a hypersensitivity factor was determined by comparing activity of the compounds against AA8 cells to activity against UV4. The latter cell line is deficient in aspects of the excision repair pathway for removing DNA adducts, and is hypersensitive to DNA-alkylating agents, especially interstrand crosslinking agents. Previous work has shown that the ratio of IC50 s determined in the wild-type AA8 and mutant UV4 lines (the hypersensitivity factor HF) is a determinant of the mode of cell killing by alkylating agents (Palmer, B. D. et al, J. Med. Chem., 1990 33 112-121; Wilson, W. R. et al, J. Med. Chem., 1989 32 31-38). Compounds with HFs of ca. 1 are unlikely to kill cells via DNA alkylation events. Compounds which show high HF values are likely to form bulky adducts or cross-links,with the latter being especially likely for compounds showing the highest HF values (>ca. 25) (Wilson et al, op. cit.).
(§2) Cell lines were maintained in exponential growth phase by subculturing in RPMI 1640 (P338) or Alpha MEM (AA8, UV4) containing 10% fetal calf serum, as previously described (Palmer et al, op.cit.; Baguley, B. C. and Wilson, W. R., Eur. J. Cancer Clin. Oncol., 1987 23 607-613). IC50 values were determined using log-phase cultures in 96-well microculture plates, and were calculated as the nominal drug concentration required to reduce the cell density to 50% of control values, using 8 control cultures on each microplate. For P388 cultures, drug was present throughout the growth period (72 h), and final cell densities were determined using a minor modification of the MTT method of Mossman (Mossman, T., J. Immunol. Methods, 1983 65 55-63). For AA8 and UV4 cultures, drug exposure was terminated after 18 h by washing three times with fresh medium. Cultures were then grown for a further 72 h before determining cell density by staining with methylene blue (Finlay, G. J. et al, Anal. Biochem., 1984 139 272-277).

AA8 cells = test: Growth inhibition in vitro, AA8; format: cell-based, Chinese hamster
Method: as §1, §2

linearized pSV2gpt DNA = test: DNA crosslinking assay (agarose gel electrophoresis of linearized plasmid); format: biochemical; settings: 2 h at 30° C., TE-80 buffer pH 8
Method: The ability of representative compounds of the invention to bind to and cross-link DNA was examined. This was carried out by agarose gel electrophoresis of plasmid DNA using linearized pSV2gpt DNA (Tindall, K. R. and Stankowski, L. F.; Mutation Research, 1989 220 241-245) and the method reported by Valu et al, 1990, op.cit. Briefly, linearized pSV2gpt DNA (1 μL of a 1 mg/mL solution) was incubated with drug in TE-80 buffer (10 mM Tris.HCl, 1 mM EDTA at pH 8), shielded from ambient light, for 2 h at 30° C., then denatured by the addition of […] of 1% sodium dodecyl sulfate and 10 μL of 50 mM methylmercury hydroxide and incubated for a further 30 min at 20° C. in the dark. Renaturation of drug-treated DNA samples was carried out by incubation with 2.5 μL of 2-mercaptoethanol for 1 h. Samples were prepared for electrophoresis by the addition of 0.1 mg/mL bromophenol blue, 0.5 μg/mL ethidium bromide and 5 μL of 40% sucrose. Electrophoresis was carried out at 120V in 89 mM tris/borate buffer at pH 8 containing 2 mM EDTA and 0.5 μg/mL ethidium bromide. DNA was visualized using 302 nm trans-illumination, and was photographed using Polaroid type 55 film and a Wratten 3A filter.
After drug treatment, DNA is denatured to the single stranded form, which runs as a lower band in the gels (see lanes 1 and 2 in FIG. 1). Cross-linking by the drugs is evidenced by the appearance of increasing amounts of renatured, double stranded DNA, as shown by the upper band in the gels, corresponding to the band for untreated DNA seen in lane 1.

S. typhimurium strains = settings: overall
AA8 and UV4 cells = test: Hypersensitivity factor (AA8/UV4 IC50 ratio); format: cell-based, Chinese hamster; settings: ratio of IC50s AA8/UV4
Method: as §1, §2

S. typhimurium TA98 = test: Bacterial mutagenicity, plate incorporation assay, TA98; settings: mean ± SD
[3] = system: Saccharomyces cerevisiae strain D5
S. typhimurium TA100 = test: Bacterial mutagenicity, plate incorporation assay, TA100; settings: for reversion colonies, TA100: mean ± SD
solid tumour lines = settings: other studies; cited from earlier work
DNA minor groove = settings: background; cited from earlier work
L1210 leukemia = settings: repeated dose schedule; cited from earlier work
[4] = 40 μg/plate, square brackets: toxicity becoming apparent
[5] = 80 μg/plate, square brackets: toxicity becoming apparent
[6] = 120 μg/plate, square brackets: toxicity becoming apparent

**Q.** With `CN1CCN(c2ccc3nc(-c4ccc5nc(CCCCCCc6ccc(N(CCCl)CCCl)cc6)[nH]c5c4)[nH]c3c2)CC1` [Compound 6, 2-[2-[6-[4-(N,N-bis(2-chloroethyl)amino)phenyl]hexyl]-5-benzimidazolyl]-5-(1-methyl-4-piperazinyl)benzimidazole] as the compound, how does the “Rate constant for alkylation” value (calf thymus DNA [1]) read?
**A.** Its value is 9.64 × 10^4.

**Q.** What about the “reversion colonies, TA102” value (S. typhimurium TA102; 4 μg/plate) of the same compound?
**A.** The value was 271 ± 31.

**Q.** What about the “reversion colonies, TA102” value (S. typhimurium TA102; 10 μg/plate) of the same compound?
**A.** The value was 386 ± 10.

**Q.** And the “reversion colonies, TA102” value (S. typhimurium TA102; 20 μg/plate)?
**A.** Its value is 342 ± 14.

**Q.** And the “reversion colonies, TA102” value (S. typhimurium TA102; [4])?
**A.** The value was 372 ± 19.

**Q.** And the “reversion colonies, TA102” value (S. typhimurium TA102; [5])?
**A.** Its value is 336 ± 19.

**Q.** And the “reversion colonies, TA102” value (S. typhimurium TA102; [6])?
**A.** Its value is 353 ± 34.

**Q.** What about the “Site size (Number of nucleotide residues)” value (calf thymus DNA [2]) of the same compound?
**A.** The value was 2.4 nucleotide residues.

**Q.** And the Optimal dose (P338 murine leukaemia; single i.p. dose)?
**A.** Its Optimal dose is 8.9 mg/kg.

**Q.** And the “% Increase in lifespan” value (P338 murine leukaemia; single i.p. dose 24 h after tumour inoculation, at optimal dose (mg/kg: 1 30; 2 30; 3 13.3; 4 3.9; 5 5.9; 6 8.9))?
**A.** Its value is 23%.

**Q.** What about the pIC50 (P388 cells) of the same compound?
**A.** Its pIC50 is 7.22.

**Q.** What about the pIC50 (AA8 cells; AA8 cells, 18 h exposure, then 72 h growth, methylene blue, read-out: IC50) of the same compound?
**A.** The pIC50 was 6.40.

**Q.** What about the Cross-linking (linearized pSV2gpt DNA) of the same compound?
**A.** Its Cross-linking is “Yes and crosslinked DNA”.

**Q.** And the bacterial mutagenicity (S. typhimurium strains)?
**A.** The bacterial mutagenicity was “lower bacterial mutagenicity”.

**Q.** And the Hypersensitivity factor (AA8 and UV4 cells)?
**A.** Its Hypersensitivity factor is 20.

**Q.** What about the “reversion colonies, TA98” value (S. typhimurium TA98; 4 μg/plate) of the same compound?
**A.** The value was 65 ± 10.

**Q.** And the “reversion colonies, TA98” value (S. typhimurium TA98; 10 μg/plate)?
**A.** The value was 69 ± 7.

**Q.** And the “reversion colonies, TA98” value (S. typhimurium TA98; 20 μg/plate)?
**A.** The value was 68 ± 8.

**Q.** And the “reversion colonies, TA98” value (S. typhimurium TA98; 40 μg/plate)?
**A.** Its value is 69 ± 9.

**Q.** What about the “reversion colonies, TA98” value (S. typhimurium TA98; [5]) of the same compound?
**A.** Its value is 96 ± 5.

**Q.** What about the “reversion colonies, TA98” value (S. typhimurium TA98; [6]) of the same compound?
**A.** The value was 75 ± 3.

**Q.** What about the “petite (mitochondrial) mutagenesis” value ([3]; yeast strain D5, in words) of the same compound?
**A.** Its value is “showed activity, albeit weak”.

**Q.** What about the “reversion colonies, TA100” value (S. typhimurium TA100; 4 μg/plate) of the same compound?
**A.** The value was 160 ± 13.

**Q.** And the “reversion colonies, TA100” value (S. typhimurium TA100; 10 μg/plate)?
**A.** The value was 136 ± 0.

**Q.** What about the “reversion colonies, TA100” value (S. typhimurium TA100; 20 μg/plate) of the same compound?
**A.** Its value is 156 ± 29.

**Q.** What about the “reversion colonies, TA100” value (S. typhimurium TA100; 40 μg/plate) of the same compound?
**A.** The value was 144 ± 10.

**Q.** What about the “reversion colonies, TA100” value (S. typhimurium TA100; 80 μg/plate) of the same compound?
**A.** Its value is 142 ± 10.

**Q.** What about the “reversion colonies, TA100” value (S. typhimurium TA100; [6]) of the same compound?
**A.** Its value is 157 ± 14.

**Q.** With `CN1CCN(c2ccc3nc(-c4ccc5nc(-c6ccc(O)cc6)[nH]c5c4)[nH]c3c2)CC1` [Pibenzimol, reference compound] as the compound, how does the “reversion colonies, TA102” value (S. typhimurium TA102; 4 μg/plate) read?
**A.** Its value is 275 ± 12.

**Q.** And the “reversion colonies, TA102” value (S. typhimurium TA102; 10 μg/plate)?
**A.** The value was 277 ± 1.

**Q.** And the “reversion colonies, TA102” value (S. typhimurium TA102; 20 μg/plate)?
**A.** The value was 301 ± 3.

**Q.** And the “reversion colonies, TA102” value (S. typhimurium TA102; [4])?
**A.** Its value is 377 ± 49.

**Q.** And the “reversion colonies, TA102” value (S. typhimurium TA102; [5])?
**A.** The value was 397 ± 10.

**Q.** What about the “cytotoxicity in solid tumour lines” value (solid tumour lines) of the same compound?
**A.** Its value is “very low cytotoxicity”.

**Q.** What about the “Site size (Number of nucleotide residues)” value (calf thymus DNA [2]) of the same compound?
**A.** The value was 2.4 nucleotide residues.

**Q.** What about the “in vivo antitumour activity” value (P338 murine leukaemia; P388, single-dose protocol) of the same compound?
**A.** The value was “not active against P388 using the single-dose protocol”.

**Q.** What about the pIC50 (P388 cells; Mus musculus) of the same compound?
**A.** Its pIC50 is roughly 6.00.

**Q.** And the “binding to DNA minor groove” value (DNA minor groove)?
**A.** The value was “binds to regions of the minor groove rich in adenine and thymine bases”.

**Q.** What about the “activity against the AA8 cell line” value (AA8 cells; compared with P388, shorter exposure time) of the same compound?
**A.** The value was “much less active”.

**Q.** What about the Hypersensitivity factor (AA8 and UV4 cells) of the same compound?
**A.** Its Hypersensitivity factor is “about unity”.

**Q.** What about the “in vivo activity against L1210 leukemia” value (L1210 leukemia) of the same compound?
**A.** The value was “moderate in vivo activity”.

**Q.** What about the “reversion colonies, TA98” value (S. typhimurium TA98; 4 μg/plate) of the same compound?
**A.** The value was 59 ± 3.

**Q.** What about the “reversion colonies, TA98” value (S. typhimurium TA98; 10 μg/plate) of the same compound?
**A.** Its value is 64 ± 8.

**Q.** And the “reversion colonies, TA98” value (S. typhimurium TA98; 20 μg/plate)?
**A.** Its value is 55 ± 6.

**Q.** And the “reversion colonies, TA98” value (S. typhimurium TA98; 40 μg/plate)?
**A.** The value was 61 ± 5.

**Q.** What about the “reversion colonies, TA98” value (S. typhimurium TA98; [5]) of the same compound?
**A.** Its value is 62 ± 9.

**Q.** What about the “petite (mitochondrial) mutagenesis” value [3] of the same compound?
**A.** The value was “not active in this system”.

**Q.** What about the “reversion colonies, TA100” value (S. typhimurium TA100; 4 μg/plate) of the same compound?
**A.** Its value is 188 ± 11.

**Q.** What about the “reversion colonies, TA100” value (S. typhimurium TA100; 10 μg/plate) of the same compound?
**A.** The value was 191 ± 7.

**Q.** And the “reversion colonies, TA100” value (S. typhimurium TA100; 20 μg/plate)?
**A.** The value was 179 ± 6.

**Q.** What about the “reversion colonies, TA100” value (S. typhimurium TA100; 40 μg/plate) of the same compound?
**A.** The value was 168 ± 13.

**Q.** And the “reversion colonies, TA100” value (S. typhimurium TA100; 80 μg/plate)?
**A.** Its value is 178 ± 11.

**Q.** And the “mutagenicity in TA100” value (S. typhimurium TA100; statistical analysis)?
**A.** Its value is “no statistically significant mutagenic response in TA100”.
